Source: patent US9902722B2, “Biaryl kinase inhibitors” (BRISTOL-MYERS SQUIBB COMPANY, priority 2014, dated 2018)

Molecular target: GST-Xa-hAAK1 (Homo sapiens (Human), UniProt Q2M2I8)
Assay: AAK1 Kinase Assay;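 also: each compound tested across an eleven-point concentration series, with IC50 obtained through non-linear regression fitting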
Type: biochemical
Conditions: bacterially expressed GST-Xa-hAAK1 3.5 nM; ATP 22 μM; peptide substrate 1.5 μM; 3 hours at room temperature; Caliper LabChip 3000
Procedure: The assays were performed in U-bottom 384-well plates. […] The reactions were initiated by the combination of bacterially expressed, GST-Xa-hAAK1 with substrates and test compounds. The reactions were incubated at room temperature for 3 hours and terminated by adding 60 μl of 35 mM EDTA buffer to each sample. […] Compounds were dissolved at 10 mM in dimethylsulfoxide (DMSO) and evaluated at eleven concentrations. IC50 values were derived by non-linear regression analysis.

GST-Xa-hAAK1, sequence (Q2M2I8 whole entry): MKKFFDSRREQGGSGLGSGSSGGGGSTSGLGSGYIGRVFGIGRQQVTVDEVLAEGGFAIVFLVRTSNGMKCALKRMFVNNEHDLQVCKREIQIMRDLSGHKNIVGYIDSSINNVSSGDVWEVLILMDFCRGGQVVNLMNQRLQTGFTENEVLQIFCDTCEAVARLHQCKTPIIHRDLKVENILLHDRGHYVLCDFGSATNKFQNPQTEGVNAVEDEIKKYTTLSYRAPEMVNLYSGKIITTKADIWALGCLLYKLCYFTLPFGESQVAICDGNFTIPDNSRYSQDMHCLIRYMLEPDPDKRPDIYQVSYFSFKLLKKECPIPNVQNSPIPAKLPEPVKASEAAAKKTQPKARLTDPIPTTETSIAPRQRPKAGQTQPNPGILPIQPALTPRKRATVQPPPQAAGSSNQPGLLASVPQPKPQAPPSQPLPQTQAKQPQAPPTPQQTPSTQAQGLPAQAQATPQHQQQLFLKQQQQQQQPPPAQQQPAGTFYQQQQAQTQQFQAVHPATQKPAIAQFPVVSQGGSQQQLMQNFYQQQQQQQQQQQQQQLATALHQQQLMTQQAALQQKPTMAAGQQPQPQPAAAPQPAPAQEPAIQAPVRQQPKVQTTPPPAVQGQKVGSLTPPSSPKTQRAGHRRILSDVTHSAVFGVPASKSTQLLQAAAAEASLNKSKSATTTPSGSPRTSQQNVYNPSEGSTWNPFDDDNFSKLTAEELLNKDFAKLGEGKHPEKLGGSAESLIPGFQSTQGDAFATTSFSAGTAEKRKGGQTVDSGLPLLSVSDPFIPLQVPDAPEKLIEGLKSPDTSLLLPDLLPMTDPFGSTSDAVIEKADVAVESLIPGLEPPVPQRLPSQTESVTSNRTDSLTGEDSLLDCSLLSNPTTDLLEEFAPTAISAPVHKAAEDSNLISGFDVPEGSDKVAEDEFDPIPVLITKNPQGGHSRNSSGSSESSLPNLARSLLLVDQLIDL

SMILES	IC50
CC(=O)Nc1cc(-c2ccc(OC[C@@H](N)CC(C)C)c(C(F)(F)F)c2)ccn1 [Example 5, (S)—N-(4-(4-((2-amino-4-methylpentyl)oxy)-3-(trifluoromethyl)phenyl)pyridin-2-yl)acetamide]	500 pM
Cc1cc(-c2ccnc(F)c2)cnc1OC[C@@](C)(N)CC(C)C [Example 95, (S)-1-((2′-fluoro-5-methyl-[3,4′-bipyridin]-6-yl)oxy)-2,4-dimethylpentan-2-amine]	39000 pM
CC(C)C[C@](C)(N)COc1ccc(-c2ccnc3ccc(F)cc23)cc1C(F)F [Example 116, (S)-1-(2-(difluoromethyl)-4-(6-fluoroquinolin-4-yl)phenoxy)-2,4-dimethylpentan-2-amine]	930 pM
COC(=O)Nc1cc(-c2ccc(OC[C@@](N)(CF)CC(C)C)c(C(F)F)n2)ccn1 [Example 180, (R)-methyl (5-((2-amino-2-(fluoromethyl)-4-methylpentyl)oxy)-6-(difluoromethyl)-[2,4′-bipyridin]-2′-yl)carbamate]	24000 pM
Cc1cc(-c2ccc(OC[C@@H](N)CC(C)C)c(C#N)c2)ccn1 [Example 15, (S)-2-((2-amino-4-methylpentyl)oxy)-5-(2-methylpyridin-4-yl)benzonitrile]	810 pM
CC(=O)Nc1cc(-c2ccc(OC[C@@](C)(N)CC(C)C)c(C(F)(F)F)c2)c(CO)cn1 [Example 34, (S)—N-(4-(4-((2-amino-2,4-dimethylpentyl)oxy)-3-(trifluoromethyl)phenyl)-5-(hydroxymethyl)pyridin-2-yl)acetamide]	15000 pM
CC(C)C[C@](C)(N)COc1ccc(-c2ccnc3cccnc23)cc1C#N [Example 87, (S)-2-((2-amino-2,4-dimethylpentyl)oxy)-5-(1,5-naphthyridin-4-yl)benzonitrile]	870 pM
CC(=O)Nc1cc(-c2ccc(OC[C@@](C)(N)CC(C)C)c(C#N)c2)ccn1 [Example 21, (S)—N-(4-(4-((2-amino-2,4-dimethylpentyl)oxy)-3-cyanophenyl)pyridin-2-yl)acetamide]	740 pM
CCc1cc(-c2cc(C(F)F)c(OC[C@@](C)(N)CC(C)C)cn2)ccn1 [Example 141, (S)-1-((4-(difluoromethyl)-2′-ethyl-[2,4′-bipyridin]-5-yl)oxy)-2,4-dimethylpentan-2-amine]	1800 pM
CC(C)C[C@](C)(N)COc1ncc(-c2ccnc(Cl)c2)cc1C(F)F [Example 193, (S)-1-((2′-chloro-5-(difluoromethyl)-[3,4′-bipyridin]-6-yl)oxy)-2,4-dimethylpentan-2-amine]	2900 pM
COC(=O)Nc1cc(-c2cc(C)c(OC[C@@](C)(N)CC(C)C)c(C)n2)ccn1 [Example 213, (S)-methyl (5-((2-amino-2,4-dimethylpentyl)oxy)-4,6-dimethyl-[2,4′-bipyridin]-2′-yl)carbamate]	22000 pM
CC(C)C[C@](C)(N)COc1cnc(-c2ccnc3cc(F)cc(F)c23)cc1Cl [Example 233, (S)-1-((4-chloro-6-(5,7-difluoroquinolin-4-yl)pyridin-3-yl)oxy)-2,4-dimethylpentan-2-amine]	730 pM
Cc1nccc(-c2ccc(OC[C@@](C)(N)CC(C)C)c(C#N)c2)c1F [Example 103, (S)-2-((2-amino-2,4-dimethylpentyl)oxy)-5-(3-fluoro-2-methylpyridin-4-yl)benzonitrile]	680 pM
COC(=O)Nc1cc(-c2cc(Cl)c(OC[C@@](C)(N)CC(C)C)cn2)ccn1 [Example 237, (S)-methyl (5-((2-amino-2,4-dimethylpentyl)oxy)-4-chloro-[2,4′-bipyridin]-2′-yl)carbamate]	1400 pM
CC(C)C[C@](C)(N)COc1ccc(-c2ccnc(C(F)F)c2)nc1C(F)F [Example 123, (S)-1-((2′,6-bis(difluoromethyl)-[2,4′-bipyridin]-5-yl)oxy)-2,4-dimethylpentan-2-amine]	2200 pM
CC(C)C[C@@](N)(CF)COc1cnc(-c2ccnc(C(F)F)c2)cc1C(F)F [Example 184, (S)-1-((2′,4-bis(difluoromethyl)-[2,4′-bipyridin]-5-yl)oxy)-2-(fluoromethyl)-4-methylpentan-2-amine]	3300 pM
Cc1ccc2c(-c3ccc(OC[C@@](C)(N)CC(C)C)c(C#N)c3)ccnc2c1 [Example 102, (S)-2-((2-amino-2,4-dimethylpentyl)oxy)-5-(7-methylquinolin-4-yl)benzonitrile]	1300 pM
COC(=O)Nc1cc(-c2cnc(OC[C@@](C)(N)CC(C)C)c(C(F)F)c2)ccn1 [Example 196, (S)-methyl (6-((2-amino-2,4-dimethylpentyl)oxy)-5-(difluoromethyl)-[3,4′-bipyridin]-2′-yl)carbamate]	200 pM
COc1cc(-c2ccnc(NC(C)=O)c2)ccc1OC[C@@H](N)CC(C)C [Example 2, (S)—N-(4-(4-((2-amino-4-methylpentyl)oxy)-3-methoxyphenyl)pyridin-2-yl)acetamide]	3000 pM

More lines, now with the values ahead:

IC50	SMILES
21000 pM	CC(C)C[C@@](C)(N)COc1cnc(-c2ccnc3ccccc23)cc1C(F)(F)F [Example 165, (R)-2,4-dimethyl-1-((6-(quinolin-4-yl)-4-(trifluoromethyl)pyridin-3-yl)oxy)pentan-2-amine]
190 pM	COC(=O)Nc1cc(-c2cc(C(F)(F)F)c(OC[C@@](C)(N)CC(C)C)cn2)ccn1 [Example 146, (S)-methyl (5-((2-amino-2,4-dimethylpentyl)oxy)-4-(trifluoromethyl)-[2,4′-bipyridin]-2′-yl)carbamate]
860 pM	COc1cnccc1-c1ccc(OC[C@@](C)(N)CC(C)C)c(C(F)(F)F)c1 [Example 46, (S)-1-(4-(3-methoxypyridin-4-yl)-2-(trifluoromethyl)phenoxy)-2,4-dimethylpentan-2-amine]
360 pM	CC(=O)Nc1cc(-c2ccc(OC[C@@](C)(N)CC(C)C)c(C(F)(F)F)c2)ccn1 [Example 19, (S)—N-(4-(4-((2-amino-2,4-dimethylpentyl)oxy)-3-(trifluoromethyl)phenyl)pyridin-2-yl)acetamide]
850 pM	CC(C)C[C@](C)(N)COc1ccc(-c2ccnc3ccccc23)nc1C(F)F [Example 118, (S)-1-((2-(difluoromethyl)-6-(quinolin-4-yl)pyridin-3-yl)oxy)-2,4-dimethylpentan-2-amine]
21000 pM	CC(C)C[C@](C)(N)COc1ccc(-c2ccnc3ccccc23)c2ccccc12 [Example 209, (S)-2,4-dimethyl-1-((4-(quinolin-4-yl)naphthalen-1-yl)oxy)pentan-2-amine]
930 pM	Cc1cc(-c2ccnc3cc(F)cc(F)c23)ncc1OC[C@@](C)(N)CC(C)C [Example 226, (S)-1-((6-(5,7-difluoroquinolin-4-yl)-4-methylpyridin-3-yl)oxy)-2,4-dimethylpentan-2-amine]
860 pM	CC(C)C[C@](C)(N)COc1ccc(-c2ncnc3ccccc23)cc1C(F)(F)F [Example 214, (S)-2,4-dimethyl-1-(4-(quinazolin-4-yl)-2-(trifluoromethyl)phenoxy)pentan-2-amine]
460 pM	CC(C)C[C@](C)(N)COc1ccc(-c2ccnc3cc(Cl)ccc23)cc1C(F)(F)F [Example 88, (S)-1-(4-(7-chloroquinolin-4-yl)-2-(trifluoromethyl)phenoxy)-2,4-dimethylpentan-2-amine]
